According to patent publication US20240287108A1, “nSMASE2 INHIBITOR PRODRUGS WITH ENHANCED ORAL AND BRAIN EXPOSURES” (The Johns Hopkins University, priority 2021, published 2024):
In brackets after ≈: the same amount, converted by molar mass. Where two headings read alike, the source gives them in different places.

Assays:
[1] = time-dependent oral pharmacokinetics in mice; format: in vivo, mouse
Method: As described earlier, we identified P1 and P18 as the most promising candidates for time dependent PK.
(§1) All PK studies in mice were conducted according to protocols approved by the Animal Care and Use Committee at Johns Hopkins University. Male CD-1 mice between 25 and 30 g were obtained from Harlan and maintained on a 12 h light-dark cycle with ad libitum access to food and water. […] All of the formulations were freshly prepared prior to the dosing. The mice were sacrificed at specified time points (either 2 h or 0.25, 0.5, 1, 2, 4, 6, and 8 h) post drug administration. For the collection of plasma and brain tissue, animals were euthanized with CO2, and blood samples were collected in heparinized microtubes by cardiac puncture. Brains were dissected and immediately flash frozen (−80° C.) Blood samples were spun at 2000 g for 15 min, and plasma was removed and stored at −80° C. until LC-MS/MS analysis. Prior to extraction, frozen samples were thawed on ice.
Brain tissues were diluted 1:5 w/v with acetonitrile containing losartan (0.5 μm) and homogenized, followed by vortex-mixing and centrifugation at 10,000 g for 10 min at 4° C. A 50 μL aliquot of the supernatant were diluted with 50 uL of water and transferred to 250 μL polypropylene autosampler vials sealed with teflon caps. Then, 2 μL of the sample were injected into the LC/MS/MS system for analysis. Chromatographic analysis was performed using an Accela ultra-high-performance system consisting of an analytical pump and an autosampler coupled with a TSQ Vantage mass spectrometer. […] The mobile phase consisted of 0.1% formic acid in acetonitrile and 0.1% formic acid in water with gradient elution were used. […] Plasma concentrations (nmol/ml) as well as brain tissue concentrations (nmol/g) were determined and plots of mean plasma concentration versus time were constructed. Non-compartmental analysis modules in Phoenix WinNonlin version 7.0 (Certara USA, Inc., Princeton, NJ) were used to quantify exposures (AUC0-t).

[2] = single time-point (2 h) oral pharmacokinetic screening in mice; format: in vivo, mouse; conditions: single time point PK, oral 10 mg/kg DPTIP equivalent
Method: as §1
Brain tissues were diluted 1:5 w/v with acetonitrile containing losartan (0.5 μm) and homogenized, followed by vortex-mixing and centrifugation at 10,000 g for 10 min at 4° C. […] Plasma concentrations (nmol/ml) as well as brain tissue concentrations (nmol/g) were determined and plots of mean plasma concentration versus time were constructed. Non-compartmental analysis modules in Phoenix WinNonlin version 7.0 (Certara USA, Inc., Princeton, NJ) were used to quantify exposures (AUC0-t).

[3] = in vitro stability in CES1−/− mouse plasma; format: in vitro ADME; conditions: CES1−/− mouse plasma, 10 μM, 37° C.
Method: All synthesized prodrugs were next screened for in vitro stability in carboxylesterase 1 knockout (CES1^−/−) mouse plasma, as well as CES1^−/− mouse brain and liver homogenates (Table 2-1). We have previously reported that CES1^−/− mouse model recapitulates human prodrug metabolism. Tenora et al., 2019.
(§2) Zimmermann et al., 2018. For the tissue homogenates, washed tissues were diluted 10-fold in 0.1 M potassium phosphate buffer and homogenized using a probe sonicator. To evaluate the stability of the intact prodrug over time, each of the crude homogenates and plasma were aliquoted to 1 mL and then spiked with a final assay concentration of 10 μM of each prodrug followed by incubation in an orbital shaker at 37° C. for 1 h (in triplicate). Sample from each incubation at predetermined time points (0 min, and 1 h) was quenched with three volumes of acetonitrile containing the internal standard (IS; losartan: 0.5 μm). Samples were vortex-mixed for 30 secs and centrifuged at 10,000×g for 10 min at 4° C. Disappearance of intact prodrugs from these samples were performed on a Dionex ultra-high-performance LC system coupled with Q Exactive Focus orbitrap mass spectrometer (Thermo Fisher Scientific Inc., Waltham MA). The separation of analytes was achieved using the Agilent Eclipse Plus column (100×2.1 mm i.d.; maintained at 35° C.) packed with a 1.8 μm C18 stationary phase. The mobile phase consisted of 0.1% formic acid in water and 0.1% formic acid in acetonitrile. Pumps were operated at a flow rate of 0.4 mL/min for 9 min using gradient elution. The mass spectrometer controlled by Xcalibur software 4.0.27.13 (Thermo Scientific) was operated with a heated electrospray ionization (HESI) ion source in positive ionization mode. Quantification of the prodrugs were performed in the full-scan mode (from m/z 50 to 1600) by comparing t=0 samples with t=60 min samples.

[4] = solubility of P18 in water and in Soluplus®/Labrasol® micelle formulation; format: physicochemical
Source text: In contrast, the solubility of the prodrugs, e.g., P18 in the micelle formulation were improved as presented below.

[5] = in vitro stability in CES1−/− mouse brain homogenates; format: in vitro ADME; conditions: CES1−/− mouse brain homogenate, 10 μM, 37° C.
Method: All synthesized prodrugs were next screened for in vitro stability in carboxylesterase 1 knockout (CES1^−/−) mouse plasma, as well as CES1^−/− mouse brain and liver homogenates (Table 2-1). We have previously reported that CES1^−/− mouse model recapitulates human prodrug metabolism.
as §2, with “For” for “Zimmermann et al., 2018. For”, “The separation of analytes was achieved using the Agilent Eclipse Plus column (100×2.1 mm i.d.; maintained at 35° C.) packed with a 1.8 μm C18 stationary phase.” left out

Structure (SMILES): CCC1CC(N2CCCCC2)CC(CC)N1C(=O)Oc1c(OC)cc(-c2nc(-c3ccccc3)c(-c3cccs3)[nH]2)cc1OC (centres unmarked) [Compound P18, 2,6-Dimethoxy-4-(5-phenyl-4-(thiophen-2-yl)-1H-imidazol-2-yl)phenyl 2′,6′-diethyl-[1,4′-bipiperidine]-1′-carboxylate]
- plasma exposure of the intact compound (AUC0-t) ([1]; oral 10 mg/kg DPTIP equivalent): 969 pmol·h/mL
- conversion of prodrug to DPTIP in vivo ([1]; oral 10 mg/kg DPTIP equivalent (P18: in the brain)): > 50%
- improvement of brain and plasma levels of DPTIP and/or its brain penetration index compared with DPTIP [2]: highest improvement
- Stability in mouse (% remaining at 1h) Mean + Std Error, Plasma [3]: 92 ± 7%
- solubility ([4]; Labrasol micelles in water, aqueous with cosolvent or surfactant or cyclodextrin, solid dispersion in Labrasol®, hydrated with water, read-out: solubility in micelle formulation): 1700 µg/mL (≈ 2700 µM)
- solubility ([4]; Soluplus micelles in water, aqueous with cosolvent or surfactant or cyclodextrin, solid dispersion in Soluplus®, hydrated with water, read-out: solubility in micelle formulation): 1700 µg/mL (≈ 2700 µM)
- solubility ([4]; water, read-out: solubility in water): < 500 µg/mL
- Stability in mouse (% remaining at 1h) Mean + Std Error, Brain [5]: 100 ± 1%
